{
  "source": "patent US10607721B2",
  "about": "“High-throughput, multi-omics approach to determine and validate de novo global mechanisms of action for drugs and toxins” (Vanderbilt University, priority 2015, dated 2020)",
  "format_in_all_cases": "cell-based, Human",
  "key": {"A549 cells [1]": {"system": "A549 cells", "assay": "Molecular screening assay (MALDI FTICR MS, molecular variance score)", "description": "After incubation for the respective times, wells were washed 3 times with PBS and stored at −80° C. The effect of different toxin dosage amounts and exposure times on the molecular content of a sample may be evaluated and reported directly for thousands of molecular species based upon the mass spectra that were collected for each of the samples. A comparison of the mass-to-charge (m/z) peak content between spectra from dosed cells and a reference spectrum from a non-dosed control sample delivers a mass spectrometric assessment of toxicity-induced molecular variation. However, seeking a data-driven global comparison instead of focusing on specific molecular species of interest makes the assessment of molecular change between the different experimental conditions very complex and high-dimensional. To determine which dosage amount induces the greatest molecular change, the inventors developed a quick and broad assessment of toxicity-induced molecular variance summarizing the entire recorded mass range. […]\nWithin each time point (represented by a 24-well plate), seven different dosage conditions were measured: six different toxin dosages and one reference condition (e.g., untreated). Per dosage condition there were nine distinct replicate measurements made: each dosage condition was represented by three replicate wells, from which three technical replicate spectra were measured per well. […]"}, "A549 cells [2]": {"system": "A549 cells", "assay": "Multi-omics analysis (transcriptome, proteome, phosphoproteome, metabolome)", "description": "Samples were analyzed for transcriptome changes by RNA sequencing at the Genomics Services Lab, HudsonAlpha, for proteome changes by label free, SILAC, and phospho-enriched SILAC LC-MS/MS, and metabolome changes by UPLC-IM-MS and data-independent acquisition (MSE) using both hydrophilic-interaction liquid chromatography and reverse phase liquid chromatography.\nFor proteomic and metabolomic label-free analyses, five sterile indium tin oxide (ITO)-coated glass slides (Delta Technologies) were placed in a tissue culture flask with removable lid (TPP). […] For proteomic analyses, slides were removed and washed 3 times with PBS, placed on dry ice, flash-frozen in liquid nitrogen, and stored at −80° C. prior to lysis. For metabolomics analysis, slides were washed in 50 mM ammonium formate.\nFor SILAC experiments, A549 cells were cultured in SILAC media for two weeks to ensure isotopic amino acid incorporation (verified by proteomic analysis). […] Following treatment cells were washed 3 times with 4° C. PBS. For phospho-SILAC, cells were washed with 4° C. PBS containing 1 mM sodium orthovanadate.\nRNA was isolated using the RNeasy Mini Kit (Qiagen). For each time point, untreated and cisplatin-treated samples were isolated in triplicate and analyzed by the Genomics Services Lab at HudsonAlpha. RNAseq was performed using poly(A) selection on an Illumina HiSeq v4 sequencing platform. Reads were paired-end with a read length of 50 bp and 50 million reads per sample.\nCells were scraped from slides and lysed in 300 μL of 50 mM Tris pH 8, 150 mM NaCl, 1% Nonidet 40, 1 mM EDTA with added HALT Protease Inhibitor Cocktail (Thermo Scientific), centrifuged, and assayed for protein concentration (BCA Protein Assay, Thermo Scientific Pierce) using a SpectraMax M2e Microplate Reader with SoftMax Pro software version 5 (Molecular Devices). Aliquots of 100 μg of protein were acetone precipitated in six times the volume for 2 h at −80° C. Precipitates were washed three times with cold acetone and reconstituted in 10 μL of neat trifluoroethanol (TFE) and 10 μL of 100 mM Tris (pH 8.0). Samples were reduced with 1 μL of 0.5 M Tris(2-carboxyethyl)phosphine hydrochloride (TCEP) for 30 minutes at room temperature and alkylated with 2 μL of 0.5 M IAA for 30 minutes at room temperature in the dark. Samples were diluted with 100 mM Tris (pH 8.0) to obtain a final solution containing 10% TFE. The samples were digested with 2 μg of trypsin (a ratio of 50:1 protein 273 to enzyme) overnight at 37° C. A solution of 60% formic acid (FA) was added to the samples until they reached pH 3. Aliquots of 5 μg of digested sample were desalted using C18 spin tips (Protea) according to the supplied protocol and dried samples were reconstituted in 15 μL of 0.1% FA. Five replicates of cisplatin treated and control (untreated) cells were prepared in parallel.\nSamples were analyzed on a Thermo Scientific Orbitrap Fusion Tribrid mass spectrometer in line with a Thermo Scientific Easy-nLC 1000 UHPLC system. Samples, 2 μL, were injected via the autosampler and loaded onto a Thermo Scientific Acclaim PepMap 100 C18 UHPLC column (75 μm×250 mm, 2 μm particle size, 100 Å pore size), with 0.1% FA in water (mobile phase A). Peptides were separated over a 140 minute two-step gradient with initial conditions set to 100% mobile phase A for 5 minutes before ramping to 20% mobile phase B, 0.1% FA in ACN, over 100 minutes and then 32% mobile phase B over 20 minutes. The remainder of the gradient was spent washing at 95% mobile phase B and returning to initial conditions. Eluted peptides were ionized via positive mode nanoelectrospray ionization (nESI) using a Nanospray Flex ion source (Thermo Fisher Scientific). The mass spectrometer was operated using a 3 second top speed data-dependent acquisition mode. Fourier transform mas spectra (FTMS) were collected using 120,000 resolving power, an automated gain control (AGC) target of 200,000, and a maximum injection time of 50 ms. […]"}, "A549 cells [3]": {"system": "A549 cells", "assay": "Apoptosis assay (ApoONE, caspase 3/7 activation)", "settings": "50 μM cisplatin", "description": "Cell viability and apoptosis were assessed by CellTiter Glo (Promega) and ApoONE (Promega) kits, respectively. Molecular changes were screened using a MALDI-FTICR MS platform.\nHuman lung carcinoma A549 cells were obtained from ATCC (Manassas, Va.) and cultured in Dulbecco's Modified Eagle's Medium (DMEM, Gibco) with 10% v/v heat-inactivated fetal bovine serum (Atlanta Biologicals) and 1% v/v penicillin/streptomycin (P/S) (Gibco) at 37° C. with 5% CO2 atmosphere. Stable isotope labeling by amino acids in cell culture (SILAC) media were prepared using SILAC DMEM (Thermo Scientific) containing 10% v/v dialyzed heat-inactivated FBS (Fisher), 1% v/v P/S, proline (250 mg/L) (Thermo Scientific), and appropriate light and heavy labeled arginine (84 mg/L), lysine (146 mg/L). […]\nAt each time point, cell viability and apoptosis were assessed by CellTiter-Glo (Promega) and ApoONE (Promega) kits, respectively. Plates were incubated at 37° C. in a plate reader (BioTek) with data 174 acquisition every 10 min by luminescence (1 s read time, 200 gain) and fluorescence (485 nm excitation, 528 nm emission). […] Cell viability was also assessed using the LIVE/DEAD Viability/Cytotoxicity Kit for mammalian cells (ThermoFisher). […]"}, "[4]": {"settings": "50 μM cisplatin for 1, 6, 24 and 48 h"}},
  "data": [
    {"smiles": "N.N.[Cl][Pt][Cl]", "note": "[cisplatin]", "values": [
      {"measurement": "earliest time at which cisplatin-induced toxicity is measurable", "setting": "A549 cells [1]; 50 μM", "value": "≤ 1", "unit": "h"},
      {"measurement": "optimal dose (maximum response in physiological and molecular screen, cell viability >50%)", "setting": "A549 cells [1]; exposure 1 and 6 h molecular screen, 24 h caspase assay", "value": 50, "unit": "μM"},
      {"measurement": "BAD phosphorylation (pSer75 at 48 h; pSer118 at 24 h and 48 h)", "setting": "A549 cells [2]; 50 μM cisplatin", "value": "increased"},
      {"measurement": "share of unique detected species significantly changed", "setting": "A549 cells [2]; [4]", "value": 24, "unit": "%"},
      {"measurement": "unique species significantly changed", "setting": "A549 cells [2]; [4]", "value": "13,483"},
      {"measurement": "phosphorylated ERK1 and/or ERK2 (pThr202/pTyr204; pThr185/pTyr187)", "setting": "A549 cells [2]; 50 μM cisplatin, 1, 6, 24, 48 h", "value": "increased at each time point"},
      {"measurement": "ATP1A1 peptides", "setting": "A549 cells [2]; 50 μM cisplatin, 6 and 24 h", "value": "decreased significantly"},
      {"measurement": "CUL4B C-terminal peptide", "setting": "A549 cells [2]; 50 μM cisplatin, 1 h", "value": "increased"},
      {"measurement": "Ncx1 transcript", "setting": "A549 cells [2]; 50 μM cisplatin, 6 h", "value": "significant decrease"},
      {"measurement": "BAK1", "setting": "A549 cells [2]; 50 μM cisplatin, 24 h", "value": "increased"},
      {"measurement": "CASP9 transcript", "setting": "A549 cells [2]; 50 μM cisplatin, 24 h", "value": "downregulation"},
      {"measurement": "phosphorylated mTOR at pS1166", "setting": "A549 cells [2]; 50 μM cisplatin, 24 h", "value": "increased"},
      {"measurement": "HUWE1 abundance", "setting": "A549 cells [2]; 50 μM cisplatin, 48 h", "value": "decreased"},
      {"measurement": "p53 pSer392", "setting": "A549 cells [2]; 50 μM cisplatin, beginning at 24 h", "value": "increased significantly"},
      {"measurement": "p53 pSer313, pSer314 and/or pSer315", "setting": "A549 cells [2]; 50 μM cisplatin, starting at 6 h", "value": "increased significantly"},
      {"measurement": "estrogen species (E1, E2)", "setting": "A549 cells [2]; 50 μM cisplatin, E1 up at 1 h, E1 and E2 up at 6 h, decreased by 24 h", "value": "transiently increased"},
      {"measurement": "BAX, CYCS, APAF1 and CASP3 transcripts", "setting": "A549 cells [2]; 50 μM cisplatin, no proteomic abundance changes", "value": "transcriptional upregulation"},
      {"measurement": "caspase activation over time", "setting": "A549 cells [3]", "value": "ceased after 48 h"},
      {"measurement": "time of maximal caspase activation", "setting": "A549 cells [3]", "value": 24, "unit": "h"}
    ]}
  ]
}
